# Data taken from PMC8442742 (Pain, 2021).
# Tests used:
# C57Bl/6 mice [1] = assay: Y maze spontaneous alternation test; type: in vivo; conditions: two cycles of cisplatin
# synaptosomes = conditions: two cycles of cisplatin
# DRG transcriptome = assay: RNA sequencing of DRG; type: in vivo, mice; conditions: cisplatin alone vs controls, one cycle
# [2] = tested on: NCI-H69 human lung cancer xenograft; assay: NCI-H69 lung cancer xenograft, tumor volume; type: in vivo, BALB/c nude mice; conditions: cisplatin 4 mg/kg i.p. every 4 days, 6 doses
# p-c-Jun in the DRGs = assay: p-c-Jun in DRG after one treatment cycle; type: in vivo, mice; conditions: one cycle of cisplatin 2.3 mg/kg i.p. for 5 days
# C57Bl/6 mice [3] = assay: Puzzle box test; type: in vivo; conditions: two cycles of cisplatin; cardboard plug, trials 8–11
# [4] = tested on: intraepidermal nerve fibers; assay: IENF density in hind paw skin; type: in vivo, mice; conditions: two cycles of cisplatin 2.3 mg/kg i.p.
compound,measurement,setting,value
N.N.[Cl][Pt][Cl] [cisplatin],Y maze alternation rate,C57Bl/6 mice [1],significant decrease in the alternation rate
same,synaptosomal MRC and SRC,synaptosomes,reduced maximal respiratory capacity and spare respiratory capacity
same,number of genes with changed expression,DRG transcriptome,1337
same,tumor growth,[2],significantly reduced tumor growth
same,p-c-Jun in DRG,p-c-Jun in the DRGs,"significantly, but modestly, induced p-c-Jun"
same,time to enter the goal box with difficult obstacle,C57Bl/6 mice [3],required significantly more time to enter the goal box
same,IENF density in the hind paws,[4],reduced IENF density
